According to patent publication US20250073255A1, “USE OF FA-TYPE LIPID COMPOUNDS IN PREPARATION OF NUCLEIC ACID DELIVERY REAGENT AND RELATED PRODUCT” (BEIJING BAISHIKANG PHARMACEUTICAL TECHNOLOGY (BSJPHARMA) …, priority 2021, published 2025):

Tested on: C57BL/6 male mice
Assay: In vivo delivery study of lipid nucleic acid mixture (oral gavage, RT-qPCR of PGY-sRNA-26 in tissues)
Design: species or system mouse
Settings: for oral delivery of single-stranded sRNA nucleic acids into mouse blood / oral delivery of single-stranded sRNA nucleic acids into mouse brain tissue / oral delivery of single-stranded sRNA nucleic acids into mouse femur / oral delivery of single-stranded sRNA nucleic acids into mouse heart tissue / oral delivery of single-stranded sRNA nucleic acids into mouse intestinal tissue / oral delivery of single-stranded sRNA nucleic acids into mouse kidney tissue / oral delivery of single-stranded sRNA nucleic acids into mouse liver tissue / oral delivery of single-stranded sRNA nucleic acids into mouse lung tissue / oral delivery of single-stranded sRNA nucleic acids into mouse spleen tissue / oral delivery of single-stranded sRNA nucleic acids into mouse stomach tissue: 100 μg lipid:10 nmol PGY-sRNA-26, sampled after 12 hours; for oral delivery of single-stranded sRNA nucleic acids into mouse heart tissue: vs free uptake group; for oral delivery of single-stranded sRNA nucleic acids into mouse intestinal tissue: intestine
How it was run: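 Lipid (100 μg) and 10 nmol 3'-methylated single-stranded PGY-sRNA-26 were heated at 90 °C for 15 min, then given by oral gavage to mice fasted 12 h. Controls were saline and free sRNA. Blood and tissues were taken at 12 h, and levels were measured by stem-loop RT-qPCR relative to U6.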

Compound	overall delivery efficacy: delivering nucleic acids into each tissue and blood tested (100 μg lipid:10 nmol PGY-sRNA-26, all tissues and blood tested)	oral delivery of single-stranded sRNA nucleic acids into mouse blood	oral delivery of single-stranded sRNA nucleic acids into mouse brain tissue	oral delivery of single-stranded sRNA nucleic acids into mouse femur	oral delivery of single-stranded sRNA nucleic acids into mouse heart tissue	oral delivery of single-stranded sRNA nucleic acids into mouse intestinal tissue	oral delivery of single-stranded sRNA nucleic acids into mouse kidney tissue	oral delivery of single-stranded sRNA nucleic acids into mouse liver tissue	oral delivery of single-stranded sRNA nucleic acids into mouse lung tissue	oral delivery of single-stranded sRNA nucleic acids into mouse spleen tissue	oral delivery of single-stranded sRNA nucleic acids into mouse stomach tissue
CCCCCC(=O)OCCCC [Lipid 613, butyl hexanoate]	best delivery efficacy	can effectively orally deliver	can effectively orally deliver	can effectively orally deliver	can effectively orally deliver	can effectively orally deliver	can effectively orally deliver	can effectively orally deliver	can effectively orally deliver	can effectively orally deliver	can effectively orally deliver
CCCCCCOC(=O)CCC [Lipid 614, hexyl butanoate]		can effectively orally deliver	can effectively orally deliver	can effectively orally deliver	can effectively orally deliver	can effectively orally deliver		can effectively orally deliver	can effectively orally deliver	can effectively orally deliver	
CCCCCCCCCC=O [Lipid 615]		can effectively orally deliver	can effectively orally deliver	can effectively orally deliver		can effectively orally deliver		can effectively orally deliver	can effectively orally deliver	can effectively orally deliver	can effectively orally deliver
CCCCCC1C(=O)CCC1CC(=O)O (centres unmarked) [Lipid 616, 2-(3-oxo-2-pentylcyclopentyl)-acetic acid]		can effectively orally deliver	can effectively orally deliver	can effectively orally deliver	can effectively orally deliver	can effectively orally deliver		can effectively orally deliver	can effectively orally deliver	can effectively orally deliver	
CCCCCCCCCOC(C)=O [Lipid 617, nonyl acetate]		can effectively orally deliver	can effectively orally deliver	can effectively orally deliver		can effectively orally deliver	can effectively orally deliver	can effectively orally deliver	can effectively orally deliver	can effectively orally deliver	can effectively orally deliver
CC/C=C/C=C/C=O [Lipid 618, (2E,4E)-hepta-2,4-dienal]			can effectively orally deliver	can effectively orally deliver		can effectively orally deliver		can effectively orally deliver	can effectively orally deliver		
C=CC(=O)CCCCC [Lipid 619, oct-1-en-3-one]		can effectively orally deliver	can effectively orally deliver	can effectively orally deliver		can effectively orally deliver	can effectively orally deliver	can effectively orally deliver		can effectively orally deliver	can effectively orally deliver
CCCCC/C=C\C/C=C\C/C=C\C/C=C\CCCC(=O)O [Lipid 620, (5Z,8Z,11Z,14Z)-icosa-5,8,11,14-tetraenoic acid]			can effectively orally deliver	can effectively orally deliver	can effectively orally deliver	can effectively orally deliver	can effectively orally deliver	can effectively orally deliver	can effectively orally deliver	can effectively orally deliver	can effectively orally deliver
CC=CC(C)=O [Lipid 621]		can effectively orally deliver	can effectively orally deliver	can effectively orally deliver	can effectively orally deliver	can effectively orally deliver		can effectively orally deliver	can effectively orally deliver		can effectively orally deliver
CCCC(=O)CC(=O)N[C@H]1CCOC1=O [Lipid 622, 3-oxo-N-[(3S)-2-oxooxolan-3-yl]hexanamide]		can effectively orally deliver	can effectively orally deliver	can effectively orally deliver		can effectively orally deliver		can effectively orally deliver	can effectively orally deliver	can effectively orally deliver	can effectively orally deliver
O=C(O)CC(=O)C(=O)O [Lipid 623, 2-oxobutanedioic acid]		can effectively orally deliver	can effectively orally deliver	can effectively orally deliver	can effectively orally deliver	can effectively orally deliver	can effectively orally deliver	can effectively orally deliver		can effectively orally deliver	can effectively orally deliver
CCCCCCCCCCCCCCCCCCCC(=O)O [Lipid 624, icosanoic acid]			can effectively orally deliver	can effectively orally deliver	can effectively orally deliver	can effectively orally deliver		can effectively orally deliver	can effectively orally deliver		can effectively orally deliver
